From PubChem BioAssay (NCI)
Several values for one entry are separate records, joined by “and”; a condition that tells them apart may be missing. Equal values may be shown once.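 Tested at 5 concentrations; 48 h exposure; 96-well plates; endpoints linearly interpolated, else capped at highest concentration. GI50: concentration for 50% inhibition of growth. TGI: concentration producing complete growth inhibition.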

Experiments:
Test in all cases: inhibition of tumour cell growth, NCI panel, 48 h
[1] = tested on: CCRF-CEM leukemia
[2] = tested on: HOP-92 NSCLC
[3] = tested on: MDA-MB-435
[4] = tested on: NCI/ADR-RES ovarian
[5] = tested on: OVCAR-5 ovarian
[6] = tested on: OVCAR-8 ovarian
[7] = tested on: SK-MEL-28 melanoma
[8] = tested on: UACC-62 melanoma

Compound: CC1(C)CCC(C)(C)c2c1ccc(O)c2Cc1c(O)ccc2c1C(C)(C)CCC2(C)C
- TGI [1]: 5.75 µM
- TGI [2]: 3.7 µM
- TGI [3]: 3.48 µM
- TGI [4]: 4.43 µM
- TGI [5]: 4.56 µM
- TGI [6]: 4.53 µM
- TGI [7]: 4.93 µM
- TGI [8]: 4.33 µM

Compound: CN(C)CCOC(c1ccccc1)c1ccccc1
- TGI [1]: > 100 µM
- TGI [2]: 85.7 µM
- GI50 [3]: 24.6 µM
- TGI [3]: 44.1 µM and > 100 µM
- GI50 [4]: 33.1 µM
- TGI [4]: 48.9 µM and > 100 µM
- GI50 [5]: 36.7 µM
- TGI [5]: 52.4 µM and > 100 µM
- GI50 [6]: 14.8 µM
- TGI [6]: 22.7 µM and > 100 µM
- GI50 [7]: 18.1 µM
- TGI [7]: 35.3 µM and > 100 µM
- GI50 [8]: 32.7 µM
- TGI [8]: 48.4 µM

Compound: CCCCCCc1nc2nc(Cl)c(Cl)nc2[nH]1
- GI50 [1]: 5.8 µM
- TGI [1]: > 100 µM
- GI50 [2]: 1.99 µM
- TGI [2]: 7.4 µM
- GI50 [3]: 8.68 µM
- TGI [3]: > 100 µM
- GI50 [4]: 6.92 µM
- TGI [4]: > 100 µM
- GI50 [5]: > 100 µM
- TGI [5]: > 100 µM
- GI50 [6]: > 100 µM
- TGI [6]: > 100 µM
- GI50 [7]: > 100 µM
- TGI [7]: > 100 µM
- GI50 [8]: 3.2 µM
- TGI [8]: > 100 µM

Compound: OCC1OC(n2cnc3c(Cl)nc(Cl)cc32)C(O)C1O (centres undefined)
- GI50 [1]: > 100 µM
- TGI [1]: > 100 µM
- GI50 [2]: 37.4 µM
- TGI [2]: > 100 µM
- GI50 [3]: > 100 µM
- TGI [3]: > 100 µM
- GI50 [4]: > 100 µM
- TGI [4]: > 100 µM
- GI50 [5]: > 100 µM
- TGI [5]: > 100 µM
- GI50 [6]: > 100 µM
- TGI [6]: > 100 µM
- GI50 [7]: > 100 µM
- TGI [7]: > 100 µM
- GI50 [8]: > 100 µM
- TGI [8]: > 100 µM

Compound: O=S(=O)(Nc1cc(Cl)ccc1Cl)c1ccc(-c2cnc(C3CC3)o2)cc1
- GI50 [1]: 0.592 µM
- TGI [1]: > 100 µM
- GI50 [2]: 1.21 µM
- TGI [2]: 8.42 µM
- GI50 [3]: 0.346 µM
- TGI [3]: 1.49 µM
- GI50 [4]: 1.22 µM
- TGI [4]: 82.6 µM
- GI50 [5]: 3.39 µM
- TGI [5]: > 100 µM
- GI50 [6]: 3.95 µM
- TGI [6]: > 100 µM
- GI50 [7]: 6.21 µM
- TGI [7]: 82.8 µM
- GI50 [8]: 0.399 µM
- TGI [8]: 23.9 µM

Compound: COc1cnc2c(c1)C(=O)c1c-2n(CCCNC(C)C)c(=O)c2cc(F)ccc12
- GI50 [1]: 0.111 µM
- TGI [1]: 10.7 µM
- GI50 [2]: 0.284 µM
- TGI [2]: 2.54 µM
- GI50 [3]: 0.309 µM
- TGI [3]: 1.48 µM
- GI50 [4]: 0.234 µM
- TGI [4]: 1.81 µM
- GI50 [5]: 0.277 µM
- TGI [5]: 0.856 µM
- GI50 [6]: 0.141 µM
- TGI [6]: 1.28 µM
- GI50 [7]: 0.94 µM
- TGI [7]: 2.51 µM
- GI50 [8]: 0.271 µM
- TGI [8]: 1.27 µM

Compound: CNC(=O)Oc1cc(C)c(/C=C/c2cncc(C(=O)NC)c2)c(C)c1
- GI50 [1]: 24.8 µM
- TGI [1]: > 25 µM
- GI50 [2]: 9.13 µM
- TGI [2]: > 25 µM
- GI50 [3]: 8.44 µM
- TGI [3]: > 25 µM
- GI50 [4]: > 25 µM
- TGI [4]: > 25 µM
- GI50 [5]: > 25 µM
- TGI [5]: > 25 µM
- GI50 [6]: > 25 µM
- TGI [6]: > 25 µM
- GI50 [7]: 18.8 µM
- TGI [7]: > 25 µM
- GI50 [8]: 13.2 µM
- TGI [8]: > 25 µM

Compound: O=C1OC(c2ccccc2)(c2cc(Br)c(O)c(Br)c2)c2ccccc21 (centres undefined)
- GI50 [1]: 38.3 µM
- TGI [1]: > 100 µM
- GI50 [2]: 16.6 µM
- TGI [2]: 40.5 µM
- GI50 [3]: 22.6 µM
- TGI [3]: 77.1 µM
- GI50 [4]: 26 µM
- TGI [4]: 84.3 µM
- GI50 [5]: 31.8 µM
- TGI [5]: > 100 µM
- GI50 [6]: 29.3 µM
- TGI [6]: > 100 µM
- GI50 [7]: 21.1 µM
- TGI [7]: 49.2 µM
- GI50 [8]: 15.6 µM
- TGI [8]: 31.7 µM

Compound: C=CN(C)S(C)(=O)=O
- GI50 [1]: > 100 µM
- TGI [1]: > 100 µM
- GI50 [2]: > 100 µM
- TGI [2]: > 100 µM
- GI50 [3]: > 100 µM
- TGI [3]: > 100 µM
- GI50 [4]: > 100 µM
- TGI [4]: > 100 µM
- GI50 [5]: > 100 µM
- TGI [5]: > 100 µM
- GI50 [6]: > 100 µM
- TGI [6]: > 100 µM
- GI50 [7]: > 100 µM
- TGI [7]: > 100 µM
- GI50 [8]: > 100 µM
- TGI [8]: > 100 µM

Compound: C=C1C(=O)O[C@@H]2C1C[C@@H](O)C(=C)CC/C=C(\C)CCC[C@H](C)[C@H]2OC(C)=O (some centres undefined)
- GI50 [1]: 2.34 µM
- TGI [1]: 5.05 µM
- GI50 [2]: 1.09 µM
- TGI [2]: 3.76 µM
- GI50 [3]: 12.9 µM
- TGI [3]: 26.7 µM
- GI50 [4]: 3.38 µM
- TGI [4]: 14.2 µM
- GI50 [5]: 10.3 µM
- TGI [5]: 22.4 µM
- GI50 [6]: 15.4 µM
- TGI [6]: 45.4 µM
- GI50 [7]: 4.78 µM
- TGI [7]: 23 µM
- GI50 [8]: 7.45 µM
- TGI [8]: 21.7 µM

Compound: O=c1c2c3c(sc2nc(N/N=C/c2ccc(Br)cc2)n1Cc1ccccc1)CCCC3
- GI50 [1]: 7.23 µM
- TGI [1]: > 100 µM
- GI50 [2]: 8.63 µM
- TGI [2]: > 100 µM
- GI50 [3]: 44.1 µM
- TGI [3]: > 100 µM
- GI50 [4]: > 100 µM
- TGI [4]: > 100 µM
- GI50 [5]: > 100 µM
- TGI [5]: > 100 µM
- GI50 [6]: 47 µM
- TGI [6]: > 100 µM
- GI50 [7]: > 100 µM
- TGI [7]: > 100 µM
- GI50 [8]: > 100 µM
- TGI [8]: > 100 µM

Compound: C[C@H](CCCNCCCNCCCN)[C@H]1CC[C@H]2[C@@H]3[C@H](OCCCN)C[C@H]4C[C@H](OCCCN)CC[C@]4(C)[C@H]3C[C@H](OCCCN)[C@]12C
- GI50 [1]: 3.82 µM
- TGI [1]: 31.1 µM
- GI50 [2]: 0.584 µM
- TGI [2]: 11.9 µM
- GI50 [3]: 0.34 µM
- TGI [3]: 1.14 µM
- GI50 [4]: 4.75 µM
- TGI [4]: 69.3 µM
- GI50 [5]: 17.5 µM
- TGI [5]: > 100 µM
- GI50 [6]: 2.27 µM
- TGI [6]: > 55.8 µM
- GI50 [7]: 0.573 µM
- TGI [7]: 4.13 µM
- GI50 [8]: 0.871 µM
- TGI [8]: 13.3 µM

Compound: CCS(=O)(=O)Nc1cccc(Nc2c3cccc(C)c3nc3c(C)cccc23)c1OC
- GI50 [1]: 0.264 µM
- TGI [1]: > 100 µM
- GI50 [2]: 0.399 µM
- TGI [2]: 7.4 µM
- GI50 [3]: 4.05 µM
- TGI [3]: > 86 µM
- GI50 [4]: 3.23 µM
- TGI [4]: 60.2 µM
- GI50 [5]: 3.86 µM
- TGI [5]: 41.5 µM
- GI50 [6]: 1.19 µM
- TGI [6]: 74.5 µM
- GI50 [7]: 4.29 µM
- TGI [7]: > 100 µM
- GI50 [8]: 0.635 µM
- TGI [8]: > 100 µM

Compound: CCOC(=O)[C@@H](C)C[C@H](Cc1ccccc1)NC(=O)c1csc([C@@H](C[C@H](C(C)C)N(C)C(=O)[C@H](CC)NC(=O)[C@H]2CCCCN2C)OC(C)=O)n1
- GI50 [1]: 0.00397 µM
- TGI [1]: > 16.7 µM
- GI50 [2]: < 0.00167 µM
- TGI [2]: 0.236 µM
- GI50 [3]: < 0.00167 µM
- TGI [3]: 0.00169 µM
- GI50 [4]: 0.0675 µM
- TGI [4]: > 15.7 µM
- GI50 [5]: 0.0108 µM
- TGI [5]: > 16.7 µM
- GI50 [6]: 0.00434 µM
- TGI [6]: > 16.7 µM
- GI50 [8]: < 0.00167 µM
- TGI [8]: > 16.7 µM

Compound: CC[C@@]1(O)C(=O)OCc2c1cc1n(c2=O)Cc2c-1nc1cc3c(cc1c2C)OCO3
- GI50 [1]: < 0.0001 µM
- TGI [2]: 0.0782 µM
- GI50 [3]: 0.0016 µM
- GI50 [4]: < 0.0001 µM
- TGI [4]: > 100 µM
- GI50 [5]: 0.0694 µM
- TGI [5]: 0.0379 µM
- GI50 [6]: < 0.0001 µM
- GI50 [7]: 0.0395 µM and 0.0765 µM
- TGI [7]: > 100 µM
- GI50 [8]: < 0.0001 µM
- TGI [8]: 0.0143 µM
